US20110269811A1, “INHIBITORS OF SEMICARBAZIDE-SENSITIVE AMINE OXIDASE (SSAO) AND VAP-1 MEDIATED ADHESION USEFUL FOR TREATMENT AND PREVENTION OF DISEASES” (priority 2006, published 2011)

Tested on: carrageenan-induced paw edema
Experiment: Carrageenan-induced rat paw edema
Assay type: in vivo, Sprague Dawley rats
Conditions: therapeutic dosing: 3 mg/kg orally one hour after 0.375% carrageenan; FIG. 8
From the text: Carrageenan-induced paw edema has been extensively used in the evaluation of anti-inflammatory effects of various therapeutic agents and is a useful experimental system for assessing the efficacy of compounds to alleviate acute inflammation (Whiteley P E and Dalrymple S A, 1998. Models of inflammation: carrageenan-induced paw edema in the rat, in Current Protocols in Pharmacology. Enna S J, Williams M, Ferkany J W, Kenaki T, Porsolt R E and Sullivan J P, eds., pp 5.4.1-5.4.3, John Wiley & Sons, New York). The full development of the edema is neutrophil-dependent (Salvemini D. et al. (1996) Br. J. Pharmacol. 118: 829).
Female Sprague Dawley rats were used in groups of 8-12 and compounds of the invention were administered orally at up to 50 mg/kg 60 min prior to carrageenan exposure. The control group was administered orally an equal volume of vehicle (PBS). Edema in the paws was induced as previously described by injecting 50 μL of a 0.5% solution of carrageenan (Type IV Lambda, Sigma) in saline with a 27-G needle s.c. in the right foot pad. (See Whiteley P. E. and Dalrymple S. A. (1998), Models of inflammation: carrageenan-induced paw edema in the rat, in Current Protocols in Pharmacology, Enna S J, Williams M, Ferkany J W, Kenaki T, Porsolt R E and Sullivan J P, eds., pp 5.4.1-5.4.3, John Wiley & Sons, New York) The size of the tested foot of each animal was measured volumetrically with a plethysmometer immediately after injection of carrageenan solution and at various times up to 360 min after carrageenan induction.
Results of experiments with the compounds II-1-E, I-1-Z, and I-2-Z are shown in FIG. 1, FIG. 5, and FIG. 6, respectively.
Using the same procedure discussed above, the size of the foot of each animal was measured volumetrically before induction of edema, and at 1.5, 3, 4.5 and 6 h after the carrageenan injection. The absolute decreases in paw swelling at 6 h with 1, 10 and 50 mg/kg were 5±11%, 20±9% and 32±6% respectively. Statistical analyses were performed with repeated measures ANOVA followed by Dunnett's test for multiple comparisons.
Paw edema was induced in groups of eight Sprague Dawley rats by injecting 50 μL of a 0.375% solution of carrageenan X in saline, subcutaneously in the foot. After one hour animals were orally dosed once with PBS, compound I-1-Z at 50 mg/kg or with indomethacin at 3 mg/kg. The size of the paws were measured before induction of edema (baseline), and at 1.5, 3, 4.5 and 6 h after carrageenan injection. […] Statistical analyses were performed with repeated measures ANOVA followed by Dunnett's test for multiple comparisons.
Groups of eight Sprague Dawley rats were orally administered PBS, or 0.01, 0.1 or 1 mg/kg of compound I-1-Z. One hour later paw edema was induced in all animals by injecting 50 μL of a 0.5% solution of carrageenan X in saline, subcutaneously into the footpad. The size of the foot of each animal was measured volumetrically before induction of edema, and at 1.5, 3, 4.5 and 6 h after the carrageenan injection. The absolute decreases in paw swelling at 6 h with 0.1 and 1 mg/kg were 34±8 and 29±8% respectively. Statistical analyses were performed with repeated measures ANOVA followed by Dunnett's test for multiple comparisons.

SMILES: COc1ccc2c(c1)c(CC(=O)O)c(C)n2C(=O)c1ccc(Cl)cc1 [indomethacin, reference compound]
- inhibition of paw edema at 6 h: 67±8%
